# Results reported in ChEMBL document CHEMBL6096651, “Synthesis, evaluation and mechanism study of novel pyrazole enamides to alleviate lung injury” (Eur J Med Chem, 2025).
# Activity calls are given as the source filed them. The rule behind the calls is not given here.
# Key:
# RAW264.7 [1] = assay: Anti-inflammatory activity against LPS-induced mouse RAW264.7 cells assessed as inhibition of IL-1beta mRNA level at 10 uM preincubated with compound for 1 hr followed by LPS-induction and measured after 4 to 24 hrs by RT-qPCR analysis; type: functional; conditions: time 5-25 hrs
# RAW264.7 [2] = assay: Anti-inflammatory activity against LPS-induced mouse RAW264.7 cells assessed as inhibition of IL-6 mRNA level at 10 uM preincubated with compound for 1 hr followed by LPS-induction and measured after 4 to 24 hrs by RT-qPCR analysis; type: functional; conditions: time 5-25 hrs
# RAW264.7 [3] = assay: Cytotoxicity against mouse RAW264.7 cells at 10 uM by CCK-8 assay; type: functional, cell-based
# RAW264.7 [4] = assay: Anti-inflammatory activity against LPS-induced mouse RAW264.7 cells assessed as increase in NRF2 nuclear translocation by laser confocal scanning microscopic analysis; type: functional, cell-based
# RAW264.7 [5] = assay: Anti-inflammatory activity against LPS-induced mouse RAW264.7 cells assessed as inhibition of TNF-alpha mRNA level at 2 uM preincubated with compound for 1 hr followed by LPS-induction and measured after 4 to 24 hrs by RT-qPCR analysis; type: functional, cell-based; conditions: time 5-25 hrs
# RAW264.7 [6] = assay: Activation of Nrf2/HO-1 signalling pathway in LPS-induced mouse RAW264.7 cells assessed as induction of Nrf2 nuclear translocation at 2 uM; type: cell-based; conditions: filed as activator
# RAW264.7 [7] = assay: Anti-inflammatory activity against LPS-induced mouse RAW264.7 cells assessed as inhibition of IL-1beta mRNA level at 2 uM preincubated with compound for 1 hr followed by LPS-induction and measured after 4 to 24 hrs by RT-qPCR analysis; type: functional, cell-based; conditions: time 5-25 hrs
# [8] = Toxicity in C57BL/6 mouse assessed as reduction in body weight at 15 to 60 mg/kg, po administered for 7 days; type: organism-based; conditions: in vivo, 168 h, dose 15-60 mg/kg, time 7 day
# RAW264.7 [9] = assay: Activation of Nrf2/HO-1 signalling pathway in LPS-induced mouse RAW264.7 cells assessed as induction of Nrf2 nuclear translocation at 20 uM; type: cell-based; conditions: filed as activator
# Mus musculus [10] = assay: Anti-inflammatory activity against PM2.5-induced lung injury C57BL/6 mouse model assessed as lung particle aggregation at 15 to 60 mg/kg, po administered for 7 days by H and E staining based analysis; type: functional, organism-based; conditions: dose 15-60 mg/kg, time 7.0 day
# RAW264.7 [11] = assay: Anti-inflammatory activity against LPS-induced mouse RAW264.7 cells assessed as inhibition of IL-6 mRNA level preincubated with compound for 1 hr followed by LPS-induction and measured after 4 to 24 hrs by RT-qPCR analysis; type: functional, cell-based; conditions: dose 10-50 µM, time 5-25 hrs
# Mus musculus [12] = assay: Anti-inflammatory activity against PM2.5-induced lung injury C57BL/6 mouse model assessed as decrease in LY6G expression in lung at 15 to 60 mg/kg, po administered for 7 days by IHC analysis; type: functional, organism-based; conditions: dose 15-60 mg/kg, time 7.0 day
# Mus musculus [13] = assay: Anti-inflammatory activity against PM2.5-induced lung injury C57BL/6 mouse model assessed as decrease in collagen formation in lung at 15 to 60 mg/kg, po administered for 7 days by Masson staining based analysis; type: functional, organism-based; conditions: dose 15-60 mg/kg, time 7.0 day
# [14] = Toxicity in C57BL/6 mouse assessed as pathological changes in kidney at 15 to 60 mg/kg, po administered for 7 days by H and E staining based analysis; type: organism-based; conditions: in vivo, 168 h, dose 15-60 mg/kg, time 7 day
# [15] = Toxicity in C57BL/6 mouse assessed as liver damage at 15 to 60 mg/kg, po administered for 7 days by H and E staining based analysis; type: organism-based; conditions: in vivo, 168 h, dose 15-60 mg/kg, time 7 day
# RAW264.7 [16] = assay: Activation of Nrf2-Keap1-HO-1 signaling pathway in mouse RAW264.7 cells assessed as upregulation of P62 expression at 10 to 50 uM by Western blot analysis; type: cell-based; conditions: filed as activator, dose 10-50 µM
# RAW264.7 [17] = assay: Activation of Nrf2/HO-1 signalling pathway in LPS-induced mouse RAW264.7 cells assessed as induction of Nrf2 nuclear translocation at 20 uM in presence of KI696; type: cell-based; conditions: filed as activator
# Mus musculus [18] = assay: Anti-inflammatory activity against PM2.5-induced lung injury C57BL/6 mouse model assessed as reduction in number of cells in BALF at 15 to 60 mg/kg, po administered for 7 days; type: functional, organism-based; conditions: dose 15-60 mg/kg, time 7.0 day
# Mus musculus [19] = assay: Anti-inflammatory activity against PM2.5-induced lung injury C57BL/6 mouse model assessed as pulmonary alveoli collapse at 15 to 60 mg/kg, po administered for 7 days by H and E staining based analysis; type: functional, organism-based; conditions: dose 15-60 mg/kg, time 7.0 day
# RAW264.7 [20] = assay: Upregulation of Keap1 mRNA level in LPS-induced mouse RAW264.7 cells at 10 to 50 uM; type: functional, cell-based; conditions: dose 10-50 µM
# Mus musculus [21] = assay: Anti-inflammatory activity against PM2.5-induced lung injury C57BL/6 mouse model assessed as decrease in iNOS expression in lung at 15 to 60 mg/kg, po administered for 7 days by IHC analysis; type: functional, organism-based; conditions: dose 15-60 mg/kg, time 7.0 day
# RAW264.7 [22] = assay: Anti-inflammatory activity against LPS-induced mouse RAW264.7 cells assessed as inhibition of TNF-alpha mRNA level preincubated with compound for 1 hr followed by LPS-induction and measured after 4 to 24 hrs by RT-qPCR analysis; type: functional, cell-based; conditions: dose 10-50 µM, time 5-25 hrs
# NCI-H292 = assay: Anti-inflammatory activity against EGF-induced human NCI-H292 cells assessed as decrease in MUC5AC mRNA expression at 20 to 50 uM by RT-qPCR analysis; type: functional, cell-based; conditions: dose 20-50 µM
# RAW264.7 [23] = assay: Anti-inflammatory activity against LPS-induced mouse RAW264.7 cells assessed as inhibition of IL-6 level incubated for 24 hrs by ELISA analysis; type: functional, cell-based; conditions: RAW264.7, 24 h
# Mus musculus [24] = assay: Anti-inflammatory activity against PM2.5-induced lung injury C57BL/6 mouse model assessed as increase in Arg-1 level in lung at 15 to 60 mg/kg, po administered for 7 days by IHC analysis; type: functional, organism-based; conditions: dose 15-60 mg/kg, time 7.0 day
# RAW264.7 [25] = assay: Anti-inflammatory activity against LPS-induced mouse RAW264.7 cells assessed as inhibition of IL-1beta mRNA level at 20 uM preincubated with compound for 1 hr followed by LPS-induction and measured after 4 to 24 hrs by RT-qPCR analysis; type: functional, cell-based; conditions: time 5-25 hrs
# RAW264.7 [26] = assay: Upregulation of HO-1 mRNA level in LPS-induced mouse RAW264.7 cells at 10 to 50 uM; type: functional, cell-based; conditions: dose 10-50 µM
# Mus musculus [27] = assay: Anti-inflammatory activity against PM2.5-induced lung injury C57BL/6 mouse model assessed as reduction in WBC cells in peripheral blood at 15 to 60 mg/kg, po administered for 7 days; type: functional, organism-based; conditions: dose 15-60 mg/kg, time 7.0 day
# RAW264.7 [28] = assay: Anti-inflammatory activity against LPS-induced mouse RAW264.7 cells assessed as inhibition of TNF-alpha mRNA level at 20 uM preincubated with compound for 1 hr followed by LPS-induction and measured after 4 to 24 hrs by RT-qPCR analysis; type: functional, cell-based; conditions: time 5-25 hrs
# RAW264.7 [29] = assay: Activation of Nrf2-Keap1-HO-1 signaling pathway in mouse RAW264.7 cells assessed as upregulation of HO-1 expression at 10 to 50 uM by Western blot analysis; type: cell-based; conditions: filed as activator, dose 10-50 µM
# Mus musculus [30] = assay: Anti-inflammatory activity against PM2.5-induced lung injury C57BL/6 mouse model assessed as inhibition of mucin expression in lung at 15 to 60 mg/kg, po administered for 7 days by AB-PAS staining based analysis; type: functional, organism-based; conditions: dose 15-60 mg/kg, time 7.0 day
# RAW264.7 [31] = assay: Anti-inflammatory activity against LPS-induced mouse RAW264.7 cells assessed as inhibition of IL-1beta mRNA level preincubated with compound for 1 hr followed by LPS-induction and measured after 4 to 24 hrs by RT-qPCR analysis; type: functional, cell-based; conditions: dose 10-50 µM, time 5-25 hrs
# Mus musculus [32] = assay: Anti-inflammatory activity against PM2.5-induced lung injury C57BL/6 mouse model assessed as infiltration of inflammatory cells at 15 to 60 mg/kg, po administered for 7 days by H and E staining based analysis; type: functional, organism-based; conditions: dose 15-60 mg/kg, time 7.0 day
# RAW264.7 [33] = assay: Upregulation of Nrf2 mRNA level in LPS-induced mouse RAW264.7 cells at 10 to 50 uM; type: functional, cell-based; conditions: dose 10-50 µM
structure (smiles),measurement,setting,value
CN(/C=C\c1ccccc1)C(=O)c1cc(-c2ccccc2)nn1-c1ccc(C(F)(F)F)cc1,inhibition at 10 µM,RAW264.7 [1],94.5%
CN(/C=C\c1ccccc1)C(=O)c1cc(-c2ccccc2Cl)nn1-c1ccc(C(F)(F)F)cc1,inhibition at 10 µM,RAW264.7 [2],53.9%
same,inhibition at 10 µM,RAW264.7 [1],97.1%
CN(/C=C\c1ccccc1)C(=O)c1cc(-c2ccc(C(F)(F)F)cc2)nn1-c1ccc(C(F)(F)F)cc1,inhibition at 10 µM,RAW264.7 [1],93.5%
Cc1ccccc1-c1cc(C(=O)N(C)/C=C\c2ccccc2)n(-c2ccc(C(F)(F)F)cc2)n1,inhibition at 10 µM,RAW264.7 [1],95.8%
Cc1cccc(-c2cc(C(=O)N(C)/C=C\c3ccccc3)n(-c3ccc(C(F)(F)F)cc3)n2)c1,inhibition at 10 µM,RAW264.7 [2],49.5%
same,inhibition at 10 µM,RAW264.7 [1],9.84%
Cc1ccc(-n2nc(C(=O)N(C)/C=C\c3ccccc3)cc2C(C)(C)C)cc1,Activity,RAW264.7 [3],Active
COc1ccc(-n2nc(C(=O)N(C)/C=C\c3ccccc3)cc2C(C)(C)C)cc1,inhibition at 10 µM,RAW264.7 [1],94.7%
CN(/C=C\c1ccccc1)C(=O)c1cc(-c2ccccc2F)nn1-c1ccc(C(F)(F)F)cc1,inhibition at 10 µM,RAW264.7 [2],50.2%
same,inhibition at 10 µM,RAW264.7 [1],96.5%
CN(/C=C\c1ccccc1)C(=O)/C=C/c1ccccc1 [LANSIUMAMIDE B],inhibition at 10 µM,RAW264.7 [2],73.4%
same,inhibition at 10 µM,RAW264.7 [1],18%
Cc1ccc(-c2cc(C(=O)N(C)/C=C\c3ccccc3)n(-c3ccc(C(F)(F)F)cc3)n2)cc1,inhibition at 10 µM,RAW264.7 [1],91.1%
COc1cc([C@@H](CC(=O)O)c2ccc(C)c(CN3C[C@@H](C)Oc4ccccc4S3(=O)=O)c2)cc2nnn(C)c12,Activity,RAW264.7 [4],Active
same,Activity,RAW264.7 [5],Active
same,Activity,RAW264.7 [6],Active
same,Activity,RAW264.7 [7],Active
CN(/C=C\c1ccccc1)C(=O)c1cc(-c2ccccc2C(F)(F)F)nn1-c1ccc(C(F)(F)F)cc1,inhibition at 10 µM,RAW264.7 [1],96%
CN(/C=C\c1ccccc1)C(=O)c1cc(C(C)(C)C)n(-c2ccc(F)cc2)n1,Activity,[8],Non-toxic
same,Activity,RAW264.7 [9],Active
same,Activity,Mus musculus [10],Active
same,Activity,RAW264.7 [11],Dose-dependent-effect
same,Activity,Mus musculus [12],Active
same,Activity,Mus musculus [13],Active
same,Activity,[14],Non-toxic
same,Activity,[15],Non-toxic
same,Activity,RAW264.7 [16],Active
same,Activity,RAW264.7 [17],Active
same,Activity,Mus musculus [18],Active
same,Activity,RAW264.7 [4],Active
same,Activity,Mus musculus [19],Active
same,Activity,RAW264.7 [20],Active
same,Activity,Mus musculus [21],Active
same,Activity,RAW264.7 [22],Dose-dependent-effect
same,Activity,NCI-H292,Active
same,IC50,RAW264.7 [23],4.82 µM
same,Activity,Mus musculus [24],Active
same,inhibition at 10 µM,RAW264.7 [2],60.3%
same,Activity,RAW264.7 [25],Active
same,Activity,RAW264.7 [26],Active
same,Activity,Mus musculus [27],Active
same,Activity,RAW264.7 [28],Active
same,Activity,RAW264.7 [29],Active
same,inhibition at 10 µM,RAW264.7 [1],96%
same,Activity,Mus musculus [30],Active
same,Activity,RAW264.7 [31],Dose-dependent-effect
same,Activity,Mus musculus [32],Active
same,Activity,RAW264.7 [33],Active
